Tests used:
Assay in all cases: relative viability (nuclei count vs DMSO), 5 days (fraction); higher = more cells survive
Zosuquidar + Phenformin = compound: O[C@@H](COc1cccc2ncccc12)CN1CCN([C@@H]2c3ccccc3[C@@H]3[C@H](c4ccccc42)C3(F)F)CC1 [Zosuquidar] + N=C(N)NC(=N)NCCc1ccccc1 [Phenformin] (partner 250 µM)
How it was run: (§1)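 Lung cancer cell lines in 1536-well plates were dosed by pin tool the day after seeding, either with one drug alone or with a fixed anchor-drug dose plus five library-drug doses (not always all listed) in √10 steps. After 5 days, cells were fixed and their nuclei stained in one step (final 0.05% Triton X-100, 1% formaldehyde, 1 ug/ml Hoechst), then counted on 4× images. Relative viability is the nuclei count in treated wells divided by that in vehicle wells. Values are medians of duplicate plates.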

Zosuquidar + Navitoclax = compound: O[C@@H](COc1cccc2ncccc12)CN1CCN([C@@H]2c3ccccc3[C@@H]3[C@H](c4ccccc42)C3(F)F)CC1 [Zosuquidar] + CC1(C)CCC(c2ccc(Cl)cc2)=C(CN2CCN(c3ccc(C(=O)NS(=O)(=O)c4ccc(N[C@H](CCN5CCOCC5)CSc5ccccc5)c(S(=O)(=O)C(F)(F)F)c4)cc3)CC2)C1 [Navitoclax] (partner 0.5 µM)
How it was run: as §1

Kobe2602 + Trametinib = compound: C1=CC(=CC=C1NC(=S)NNC2=C(C=C(C=C2[N+](=O)[O-])C(F)(F)F)[N+](=O)[O-])F [Kobe2602] + CC(=O)Nc1cccc(-n2c(=O)n(C3CC3)c(=O)c3c(Nc4ccc(I)cc4F)n(C)c(=O)c(C)c32)c1 [Trametinib] (partner 0.02 µM)
How it was run: as §1

Zosuquidar + Olaparib = compound: O[C@@H](COc1cccc2ncccc12)CN1CCN([C@@H]2c3ccccc3[C@@H]3[C@H](c4ccccc42)C3(F)F)CC1 [Zosuquidar] + O=C(c1cc(Cc2n[nH]c(=O)c3ccccc23)ccc1F)N1CCN(C(=O)C2CC2)CC1 [Olaparib] (partner 8 µM)
How it was run: as §1

Cell Line | relative viability (Zosuquidar + Phenformin; first compound 0.01 µM) | relative viability (Zosuquidar + Phenformin; first compound 0.03162 µM) | relative viability (Zosuquidar + Phenformin; first compound 0.1 µM) | relative viability (Zosuquidar + Phenformin; first compound 0.3162 µM) | relative viability (Zosuquidar + Phenformin; first compound 1 µM) | relative viability (Zosuquidar + Navitoclax; first compound 0.01 µM) | relative viability (Zosuquidar + Navitoclax; first compound 0.03162 µM) | relative viability (Zosuquidar + Navitoclax; first compound 0.1 µM) | relative viability (Zosuquidar + Navitoclax; first compound 0.3162 µM) | relative viability (Zosuquidar + Navitoclax; first compound 1 µM) | relative viability (Kobe2602 + Trametinib; first compound 0.2 µM) | relative viability (Kobe2602 + Trametinib; first compound 0.6325 µM) | relative viability (Kobe2602 + Trametinib; first compound 2 µM) | relative viability (Kobe2602 + Trametinib; first compound 6.325 µM) | relative viability (Kobe2602 + Trametinib; first compound 20 µM) | relative viability (Zosuquidar + Olaparib; first compound 0.01 µM) | relative viability (Zosuquidar + Olaparib; first compound 0.03162 µM) | relative viability (Zosuquidar + Olaparib; first compound 0.1 µM) | relative viability (Zosuquidar + Olaparib; first compound 0.3162 µM) | relative viability (Zosuquidar + Olaparib; first compound 1 µM)
201T | 0.449 | 0.444 | 0.404 | 0.468 | 0.472 | 1.1 | 1.16 | 1.14 | 1.2 | 1.21 | 0.711 | 0.715 | 0.741 | 0.771 | 0.677 | 0.801 | 0.821 | 0.816 | 0.836 | 0.862
A549 | 0.19 | 0.176 | 0.145 | 0.255 | 0.172 | 1.16 | 0.892 | 1.16 | 1.23 | 1.24 | – | – | – | – | – | 0.301 | 0.379 | 0.306 | 0.371 | 0.35
A-427 | 0.344 | 0.324 | 0.368 | 0.401 | 0.383 | 1.01 | 0.714 | 0.873 | 1.02 | 0.974 | 0.804 | 0.745 | 0.793 | 0.739 | 0.742 | 0.757 | 0.711 | 0.76 | 0.771 | 0.819
ABC-1 | 0.253 | 0.257 | 0.252 | 0.256 | 0.266 | – | – | – | – | – | – | – | – | – | – | 0.892 | 0.684 | 1.09 | 0.78 | 0.901
BEN | 0.268 | 0.245 | 0.263 | 0.265 | 0.26 | 0.523 | 0.0629 | 0.0532 | 0.0672 | 0.0608 | 1.01 | 1.16 | 1.17 | 1.06 | 1.14 | 1.15 | 0.953 | 0.883 | 1.02 | 0.97
CAL-12T | 0.634 | 0.629 | 0.554 | 0.576 | 0.582 | 1.38 | 1.35 | 1.17 | 1.45 | 1.2 | 0.331 | 0.337 | 0.37 | 0.412 | 0.318 | 0.739 | 0.715 | 0.741 | 0.793 | 0.706
Calu-6 | – | – | – | – | – | 0.88 | 0.81 | 0.895 | 0.86 | 0.813 | – | – | – | – | – | 0.583 | 0.677 | 0.714 | 0.605 | 0.594
EBC-1 | – | – | – | – | – | 0.451 | 0.417 | 0.466 | 0.493 | 0.417 | – | – | – | – | – | 0.692 | 0.797 | 0.638 | 0.827 | 0.705
IA-LM | – | – | – | – | – | 0.803 | 0.83 | 1.02 | 0.848 | 0.753 | – | – | – | – | – | 0.817 | 0.805 | 0.82 | 0.879 | 0.885
LCLC-103H | 0.306 | 0.314 | 0.255 | 0.356 | 0.331 | – | – | – | – | – | 0.651 | 0.731 | 0.674 | 0.73 | 0.644 | 0.743 | 0.721 | 0.808 | 0.759 | 0.695
NCI-H358 | 0.278 | 0.293 | 0.281 | 0.359 | 0.335 | – | – | – | – | – | 0.138 | 0.15 | 0.135 | 0.16 | 0.141 | 0.671 | 0.632 | 0.519 | 0.65 | 0.703
NCI-H522 | 0.654 | 0.606 | 1.07 | 0.682 | 0.62 | – | – | – | – | – | 0.9 | 0.947 | 0.736 | 0.742 | 0.723 | 0.724 | 0.623 | 0.684 | 0.766 | 0.668
NCI-H650 | 0.464 | 0.42 | 0.379 | 0.482 | 0.448 | – | – | – | – | – | 0.943 | 0.961 | 1 | 0.993 | 0.845 | 0.393 | 0.393 | 0.394 | 0.454 | 0.369
NCI-H661 | 0.267 | 0.254 | 0.275 | 0.275 | 0.27 | – | – | – | – | – | 0.554 | 0.594 | 0.594 | 0.622 | 0.522 | 0.718 | 0.731 | 0.737 | 0.727 | 0.759
NCI-H1299 | – | – | – | – | – | 1.06 | 1.02 | 1.03 | 1.01 | 1.04 | – | – | – | – | – | 0.982 | 0.976 | 0.993 | 0.963 | 1.01
NCI-H1563 | 0.671 | 0.681 | 0.595 | 0.666 | 0.683 | – | – | – | – | – | – | – | – | – | – | – | – | – | – | –
NCI-H1623 | 0.622 | 0.662 | 0.537 | 0.613 | 0.576 | – | – | – | – | – | – | – | – | – | – | – | – | – | – | –
NCI-H1648 | – | – | – | – | – | – | – | – | – | – | 0.474 | 0.488 | 0.465 | 0.457 | 0.408 | 0.5 | 0.908 | 0.614 | 0.799 | 0.877
NCI-H1703 | – | – | – | – | – | 1.39 | 1.36 | 1.44 | 1.33 | 1.05 | – | – | – | – | – | 0.413 | 0.421 | 0.394 | 0.858 | 0.451
NCI-H2342 | 0.581 | 0.558 | 0.49 | 0.581 | 0.623 | – | – | – | – | – | 0.741 | 0.84 | 0.794 | 0.68 | 0.84 | 0.459 | 0.544 | 0.421 | 0.501 | 0.439
SW 900 | 0.597 | 0.578 | 0.618 | 0.738 | 0.557 | – | – | – | – | – | 0.959 | 0.745 | 0.807 | 0.677 | 0.548 | 0.853 | 0.93 | – | 1.06 | 0.838
